Laboratory results taken from patent US5462861A, “Method for improving enzyme activities with noble gases” (American Air Liquide, Chicago Research Center, priority 1993, dated 1995).

Tests used:
[1] = system: Tyrosinase; test: High pressure experiments, tyrosinase; format: biochemical, Mushroom; conditions: for % inhibition of gases relative to 1 atmosphere of air: value before the slash (not pressurized)
Experimental: Shake the enzyme in each cylinder for several minutes and then remove a 5 ml sample for Control B and Control C. Remove cylinders to the dock, gassing with the appropriate gas; bring pressure slowly up to 30.6 atm. Let sit at the required pressure for 60 minutes. Slowly depressurize to 2 psi before bringing into the lab. Bring the cylinders back to the dock and repressurize to 100 atm with the appropriate gas. Let sit at the required pressure for 60 minutes. Slowly depressurize to 2 psi before bringing into the lab. […] Shake the enzyme in each cylinder for several minutes and then remove a 5 ml sample for Control B and Control C. Remove cylinders to the dock, gassing with the appropriate gas. Remove headspace/residual gas by pressurizing and depressurizing the gas cylinder several times. Bring pressure slowly up to 30.6 atm. Let sit at the required pressure for 60 minutes. Slowly depressurize to 40 psi before bringing into the lab. Enzyme injection: […] The cylinders were pressurized as described above. The cylinder pressure was released and the cylinders repressurized 10 times to remove O2 from the cylinders. Final Pressurization: […] Cylinder 3 was pressurized to 1 atm with Xe then pressurized to 30.6 atm with N2 to conserve Xe. Time Table: […] Due to the fact that on 4/25/91 the spectrophotometers were being used at 5° C. for a different experiment the decision was made to sample the cylinders at the end of the day when the spectrophotometer was available to be put at 25° C. Sampling took place 28 hours after pressurization. A spectro/gas run was immediately preformed on these samples. Apr. 25, 1991 Repressurization: Cylinders were repressurized at 6:00 pm on 4/25/91 to 100 atm. These cylinders will be sampled at 2:00 pm Apr. 26, 1991 (20 hrs after pressurization). Cuvettes were filled for the 2 atm experiments for both enzymes. Each cuvette was gassed 10×10 cc with the appropriate gas and refrigerated for 15 minutes prior to running. Serum vials were filled with 5 cc of the corresponding enzyme and gassed with 10×10 cc of the appropriate gas prior to running. The spectrophotometers were set up such that a continuous flow of each gas could be delivered to each spectro at all times. A 100 […] gauge was installed to read the cuvette pressure and 2 on/off valves were installed so that the reference cell could be pressurized during the second replicate. A ball valve was installed between the cylinder/house line and the gauge so that gas flow could be controlled directly at the spectrophotometers. A check valve was placed in each line to ensure that a back pressure would not cause contamination of the house lines or the gas cylinders. The cuvettes retained the 2 needles during the entire run. One of the needles was attached to the gas line while the second was used for enzyme introduction and then plugged. Due to the bulky nature of the assembly it was impossible to use the installed doors of the spectrophotometers therefore they were removed. A 4-layer thick black felt cover was prepared for each spectro to minimize the amount of light entering the system. While the cuvette was equilibrating to temperature in the spectrophotometer both needles remained in the cuvette with 10 cc syringes still attached. Prior to enzyme introduction one of the syringes was removed while the gas line was attached to the needle. A small flow of gas run through the line while this was done to ensure that there was no oxygen contamination. The needles remained above the liquid level. The second syringe was removed to allow constant flow through the cuvette. The enzyme was injected through the second needle using a 1 cc syringe. The needle was then plugged, the cuvette pressurized and the run begun. A nonpressurized gas run using all four gases was done for each enzyme. Each cuvette was gassed with 10×10 cc of the corresponding gas and refrigerated for 15 minutes. The 2 needles used for gassing the cuvettes were removed when the cuvettes were placed into the spectrophotometer. […]

[2] = system: oxidoreductase enzymes; test: Oxidoreductases, effects for the class; format: biochemical; conditions: for Maxima for class: effect: Class I oxidoreductases, minus = inhibition
Experimental: (§1) Solution preparation: Optimized w/v solutions are prepared by diluting the enzyme (units/ml) and the substrate (μg/ml) in appropriate buffer (optimized pH and molarity for enzymes). The solutions are used for gas experiments at once to avoid loss of activity. Various enzyme and substrate concentrations and inhibitors may be employed. Physical parameters are varied as required.
(§2) Preparation of samples: Cuvets are filled with 2 ml of substrate solution by means of a gas-tight syringe. Gas-tight serum vials are filled with enzyme and solvent. Sufficient gas is consecutively bubbled in the cuvets and serum vials, with a 1-hr wait between injections to maximize equilibration of gas. All syringes and dead spaces are purged before filling with the appropriate gas. The amount of gas used has been measured sufficient to saturate the solution required.
(§3) Spectrophotometric time-drive, reaction rate, and kinetic analyses: cuvets and serum vials are saturated with gas 40 minutes before the run. A gas-filled syringe is used to retrieve 0.5 ml of enzyme solution to avoid air contact. The 0.5 ml syringe injections of enzyme are made simultaneously to effect a common starting time to for the samples. 7 gases (air, O2, N2, Ne, Ar, Kr, Xe) are run at various temperatures each (from 0° to 60° ). Changes in the rate or final equilibrium of the reaction versus ambient air are recorded. Comparison is also made with added oxygen, and with deoxygenation. Some samples are also prepared under pressure.
(§4) In a complete experiment, an enzyme at optimal pH and buffering salt concentration is reacted with 5 substrate concentrations in solution with noble gas at 1 atm. […] Controls are also run after evacuation of solution by vacuum. The reaction is monitored colorimetrically in a scanning spectrophotometer in real time, and the signals are treated mathematically to obtain rate and yield differences. Sample numbers are constant and sufficient to ensure significance of results. All parameters are independently controlled and measured, and more complex experiments are occasionally carried out.

[3] = biological target: Phosphoglucose isomerase (Homo sapiens, UniProt P06744); test: Phosphoglucose isomerase activity under gas; format: biochemical; conditions: for effect: phosphoglucose isomerase; for effect, stressed: stressed = nonoptimal substrate concentration or temperature
Experimental: as §1, §2, §3, §4

[4] = biological target: Gamma-glutamyl transpeptidase (Homo sapiens, UniProt P19440); test: Gamma-glutamyl transpeptidase activity under gas; format: biochemical; conditions: for effect on α-glutamyltranspeptidase: FIG. 29; for effect: minus = inhibition
Gamma-glutamyl transpeptidase, sequence (P19440 1-380 limits assumed): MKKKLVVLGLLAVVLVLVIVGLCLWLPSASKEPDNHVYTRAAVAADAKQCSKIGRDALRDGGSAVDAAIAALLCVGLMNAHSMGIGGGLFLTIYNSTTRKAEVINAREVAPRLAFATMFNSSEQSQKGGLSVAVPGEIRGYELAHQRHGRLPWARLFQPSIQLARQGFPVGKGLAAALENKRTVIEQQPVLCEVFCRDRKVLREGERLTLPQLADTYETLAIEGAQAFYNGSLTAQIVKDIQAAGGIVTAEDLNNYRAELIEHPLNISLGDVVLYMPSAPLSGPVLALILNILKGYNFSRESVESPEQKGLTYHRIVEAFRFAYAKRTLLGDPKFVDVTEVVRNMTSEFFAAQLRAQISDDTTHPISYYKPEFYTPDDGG
Experimental: as §1, §2, §3, §4

[5] = system: Tyrosinase; test: Gas mixture experiment, tyrosinase; format: biochemical, Mushroom; conditions: inhibition vs. air control, 25° C.
Experimental: In addition to mixes of noble gases with nitrogen and oxygen, and of mixes of Kr and Xe, serial mixes of Ar and either Xe or Kr were tested. Results for tyrosinase expressed as inhibition vs. air control: Apr. 18, 1991: Gas mix prep: 120 cc serum vials were used to mix the gassed in. These vials were purged using vacuum while 1 atm of argon was maintained in the vial. The vials were purged for 20 seconds in this manner. The vials were under slight pressure which was released through a needle. This is considered 120 cc of Argon. The necessary volumes of Argon and the gas to be mixed with (Xe or Kr) were then introduced into the vials using a 30 cc syringe and needle. We gassed the enzyme using 1 vial of gas mix using 8×10 cc of gas out of the vial. We gassed the cuvette/substrate using a second vial of gas mix using 8×10 cc of gas out of the vial. Argon and Xenon were retrieved from the gas cylinders. […] We determined that we would be unable to retrieve 8×10 cc of gas mix from 1 vial. […] We prepared the Ar/Kr mixes as described above and did 2 replicates of the 10% and 50% mixes.

[6] = biological target: Triosephosphate isomerase (Homo sapiens, UniProt P60174); test: Triosephosphate isomerase activity under gas; format: biochemical
Triosephosphate isomerase, sequence (P60174 2-249 limits assumed, species assumed): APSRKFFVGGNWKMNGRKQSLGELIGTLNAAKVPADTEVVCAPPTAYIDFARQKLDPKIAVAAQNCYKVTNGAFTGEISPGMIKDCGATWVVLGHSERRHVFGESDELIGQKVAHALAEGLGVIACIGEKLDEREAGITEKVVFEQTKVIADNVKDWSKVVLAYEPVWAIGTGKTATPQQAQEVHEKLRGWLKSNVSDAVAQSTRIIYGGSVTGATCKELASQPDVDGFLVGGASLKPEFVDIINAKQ
Experimental: as §1, §2, §3, §4

[7] = 30.6 atm (24 hr), Xe = Xe 1 atm/N2 to pressure
[8] = 100 atm (~24 hr), Xe = Xe 1 atm/N2 to pressure

In the case of `[Ar]` [Ar, argon], the “inhibition relative to 1 atmosphere after pressurization” value (“inhibition relative to 1 atmosphere” below) ([1]; 2 atm) is reported as -90.4%, the “% inhibition of gases relative to 1 atmosphere of air” value ([1]; 2 atm experiment) is reported as -76.9% and the “inhibition relative to 1 atmosphere” value ([1]; 3 atm) is reported as -72.1%. For the same compound, the “% inhibition of gases relative to 1 atmosphere of air” value ([1]; 3 atm experiment) was -55.8%, the “effect on oxidoreductase reactions” value [2] was “very active at low temperatures” and the “Maxima for class: effect” value [2] was -91%. The “effect on phosphoglucose isomerase” value ([3]; 10° C., FIG. 34) was “enhancement”, the effect [3] was “+232.5%” and the “effect on α-glutamyltranspeptidase” value [4] was “inhibition”. The effect [4] was -5%, the “% inhibited” value ([5]; Mix = % Kr in Ar) was -75% and the “% inhibited” value ([5]; Mix = % Xe in AR) was -75%. For the same compound, the effect ([6]; 10° C., plus = enhancement) was “+8%” and the effect ([6]; 25° C., inhibition) was -37%.

For `[Kr]` [Kr, krypton], the “inhibition relative to 1 atmosphere” value ([1]; 2 atm) was -93.1%, the “% inhibition of gases relative to 1 atmosphere of air” value ([1]; 2 atm experiment) was -84.5% and the “effect on oxidoreductase reactions” value [2] was “somewhat lesser effect than xenon”. The “Maxima for class: effect” value [2] was -91%, the “effect on phosphoglucose isomerase” value ([3]; 10° C., FIG. 34) was “enhancement” and the effect [3] was “+206.4%”. For the same compound, the “effect on α-glutamyltranspeptidase” value [4] was “inhibition”, the effect [4] was -8% and the “% inhibited” value ([5]; Mix = % Kr in Ar) was -77%. For the same compound, the effect ([6]; 10° C., plus = enhancement) was “+12%”.

For `N#N` [N2, nitrogen, reference compound], the “inhibition relative to 1 atmosphere” value ([1]; 2 atm) was -88.5%, the “% inhibition of gases relative to 1 atmosphere of air” value ([1]; 2 atm experiment) was -71.2% and the “inhibition relative to 1 atmosphere” value ([1]; 3 atm) was -82.6%. For the same compound, the “% inhibition of gases relative to 1 atmosphere of air” value ([1]; 3 atm experiment) was -72.1%, the effect on tyrosinase ([1]; 30 atm. pressure, FIG. 39) was “inhibitory effect” and the “inhibition relative to 1 atmosphere” value ([1]; 30.6 atm (1 hr)) was -15.4%. The “inhibition relative to 1 atmosphere” value [1, 7] was -78.8%, the “inhibition relative to 1 atmosphere” value ([1]; 100 atm (1 hr)) was -20.0% and the “inhibition relative to 1 atmosphere” value [1, 8] was -84.7%. For the same compound, the effect on tyrosinase ([1]; 100 atm. pressure, FIG. 40) was “inhibitory effect” and the “effect on phosphoglucose isomerase” value ([3]; 25° C., FIG. 35) was “enhancement”.

With `[Ne]` [Ne, neon] the “inhibition relative to 1 atmosphere” value ([1]; 2 atm) was -84.5%, the “% inhibition of gases relative to 1 atmosphere of air” value ([1]; 2 atm experiment) was -69.0% and the “Maxima for class: effect” value [2] was -85%. The “effect on phosphoglucose isomerase” value ([3]; 25° C., FIG. 35) was “enhancement”, the effect [3] was “+107%” and the “effect, stressed” value [3] was -45%. For the same compound, the effect [4] was -3% and the effect ([6]; 10° C., plus = enhancement) was “+4%”.

For `[Xe]` [Xe, xenon], the “inhibition relative to 1 atmosphere” value ([1]; 2 atm) was -86.2%, the “% inhibition of gases relative to 1 atmosphere of air” value ([1]; 2 atm experiment) was -76.0% and the effect on tyrosinase ([1]; 30 atm. pressure, FIG. 39) was “inhibitory effect”. The “inhibition relative to 1 atmosphere” value [1, 7] was -87.0%, the “inhibition relative to 1 atmosphere” value [1, 8] was -85.7% and the effect on tyrosinase ([1]; 100 atm. pressure, FIG. 40) was “inhibitory effect”. For the same compound, the “change in relative effect” value ([1]; effect of pressure) was 75%, the “effect on oxidoreductase reactions” value [2] was “largest effect on the rate” and the “Maxima for class: effect” value [2] was -95%. For the same compound, the “effect on phosphoglucose isomerase” value ([3]; 10° C., FIG. 34) was “enhancement”, the effect [3] was “+186%” and the “effect, stressed” value [3] was -61%. For the same compound, the “effect on α-glutamyltranspeptidase” value [4] was “inhibition”, the effect [4] was -7% and the “% inhibited” value ([5]; Mix = % Xe in AR) was -86%. The effect ([6]; 10° C., plus = enhancement) was “+24%”.
